Experimental data: US8076377B2, “N,N-dimethyl imidodicarbonimidic diamide dicarboxylate, method for producing the same and pharmaceutical compositions comprising the same” (Hanall Pharmaceutical Company, Ltd., priority 2007, dated 2011)
Where a name gives a salt, the structure may show the parent alone.

What was measured:
[1] = test system: hyperlipidemia-induced rats; experiment: Effect on blood lipid, oral administration for 1 week to hyperlipidemia-induced rats (blood biochemical tests); details: 500 mg/kg oral for 1 week, average ± standard deviation
[2] = Water content with Karl-Fisher moisture meter after exposure to temperature/relative humidity (hygroscopicity, hydrate stability)
[3] = pH at saturation
rat = details: oral; cited from earlier work
rabbit = details: oral; cited from earlier work

Molecule	ALT [1] [IU/L]	AST [1] [IU/L]	BUN [1] [mg/dL]	CHO (Cholesterol) [1] [mg/dL]	CRE [1] [mg/dL]	HDL [1] [mg/dL]	LDL [1] [mg/dL]	TG (Triglyceride) [1] [mg/dL]	water content ([2]; 40° C., 75% R.H., day 0) [wt %]	water content ([2]; 40° C., 75% R.H., day 1) [wt %]	water content ([2]; 40° C., 75% R.H., day 2) [wt %]	water content ([2]; 40° C., 75% R.H., day 5) [wt %]	water content ([2]; 60° C., 15% R.H., day 0) [wt %]	water content ([2]; 60° C., 15% R.H., day 1) [wt %]	water content ([2]; 60° C., 15% R.H., day 2) [wt %]	water content ([2]; 60° C., 15% R.H., day 5) [wt %]	Saturation pH [3]	further results
metformin (2:1) malonate [Metformin malonate]	49.0 ± 7.0	136.6 ± 11.6	15.3 ± 0.9	238.2 ± 16.4	0.5 ± 0.0	40.4 ± 1.4	168.3 ± 13.7	50.3 ± 7.9	5.143	5.403	5.288	5.376	5.143	5.222	5.219	5.184	–	–
CN(C)C(=N)N=C(N)N [Metformin hydrochloride, metformin hydrochloride, reference compound]	49.8 ± 4.8	126.9 ± 8.4	13.6 ± 0.4	277.1 ± 21.8	0.5 ± 0.0	42.5 ± 1.0	198.3 ± 18.5	37.3 ± 1.5	0.080	0.069	0.053	0.054	0.080	0.044	0.047	0.056	2.892	–
O=C(O)CCCC(=O)O [glutaric acid]	–	–	–	–	–	–	–	–	–	–	–	–	–	–	–	–	–	LD50 (50% lethal dose) (rat): LD50 6000 mg/kg
CN(C)C(=N)N=C(N)N.O=C(O)CCCC(=O)O [Metformin glutarate, metformin (2:1) glutarate]	–	–	–	–	–	–	–	–	–	–	–	–	–	–	–	–	10.200	–
Cl [Hydrochloric acid]	–	–	–	–	–	–	–	–	–	–	–	–	–	–	–	–	–	LD50 (50% lethal dose) (rabbit): LD50 900 mg/kg
CN(C)C(=N)NC(=N)N [Metformin malate, metformin (2:1) malate]	–	–	–	–	–	–	–	–	–	–	–	–	–	–	–	–	3.950	–
